Assay: Ingredient metering: LC-UV concentration of active ingredients on storage
Type: physicochemical
Conditions: for Concentration of ingredient in inventive formula, T1M 45° C / Concentration of ingredient in inventive formula, T1M TA: in Inventive Ex. 1, 1 month; for Concentration of ingredient in inventive formula, T1M TA / Concentration of ingredient in inventive formula, T2M TA: temperature ambient; for Concentration of ingredient in inventive formula, T2M 45° C / Concentration of ingredient in inventive formula, T2M TA: in Inventive Ex. 1, 2 months; for Concentration of ingredient in inventive formula, T0 M: in Inventive Ex. 1, month 0
Source text: The levels of Ascorbic Acid, Ferulic Acid, Salicylic Acid, and Silybum marianum Extract (Active Silybin) were metered.

COc1cc(/C=C/C(=O)O)ccc1O [Ferulic Acid]
Concentration of ingredient in inventive formula, T1M 45° C: 0.43%
Concentration of ingredient in inventive formula, T1M TA: 0.48%
Concentration of ingredient in inventive formula, T2M 45° C: 0.39%
Concentration of ingredient in inventive formula, T2M TA: 0.50%
Concentration of ingredient in inventive formula, T0 M: 0.46%

O=C(O)c1ccccc1O [Salicylic Acid]
Concentration of ingredient in inventive formula, T1M 45° C: 0.49%
Concentration of ingredient in inventive formula, T1M TA: 0.50%
Concentration of ingredient in inventive formula, T2M 45° C: 0.47%
Concentration of ingredient in inventive formula, T2M TA: 0.49%

O=C1O[C@H]([C@@H](O)CO)C(O)=C1O [Ascorbic Acid]
Concentration of ingredient in inventive formula, T1M 45° C: 14.72%
Concentration of ingredient in inventive formula, T1M TA: 15.04%
Concentration of ingredient in inventive formula, T2M 45° C: 14.00%
Concentration of ingredient in inventive formula, T2M TA: 15.60%
Concentration of ingredient in inventive formula, T0 M: 15.2%
